In patent US20240199564A1, “TRPM8 AGONISTS AS COOLING AGENTS AND FOR THE TREATMENT OF DISEASE” (Concentric Analgesics, Inc., priority 2021, published 2024):
Where a name gives a salt, the structure may show the parent alone. Read-outs that look alike come from different tables or passages of the source.

Tests used:
[1] = Solution state stability assay; assay type: physicochemical; conditions: 50° C.; for % degradation at 28 days: HPLC; for aqueous stability / hydrolysis, comparison in words: buffer, 28 days
Procedure: Compounds were incubated in the buffer media indicated (ingredients for making of PBS buffer and sodium citrate/citric acid buffer were obtained from Sigma-Aldrich, St. Louis, MO, USA). The reactions were conducted at either 50° C. and for 28 days. Samples were collected at specific time points and analyzed for % degradation of the parent compound based on UV/Vis analysis.
Methods: Samples were weighed using a Mettler Toledo XS105 analytical balance (accurate to +/−0.01 mg). Accurate dilutions were made with a P1000, P200, or P20 Gilson Pipetman, or an Eppendorf Maxipettor 1-10 mL pipettor. pH Measurements were made with a Hanna Instruments HI 4222 pH meter and a Hanna instruments HI 1330B micro pH probe. Samples were analyzed via high pressure liquid chromatography using an Agilent series 1100 HPLC instrument with a Grace Alltima column. Chromatograms were manually integrated. Individual chromatograms are assigned an automatic HPLC identification number.
Freshly prepared 1.0 mg/mL solution of each compound listed in Table # was allotted into two-dram clear glass vials. […] The vials were then stored in an oven set to 50° C. At the appropriate time points, the vials were removed from the oven, vortexed for 30 seconds and an aliquot (400 μL) was pipetted into an HPLC vial and quenched with 1% TFA in ACN (400 μL). […] For all samples, aliquots were taken after 28 days. Quenched vials were immediately analyzed via HPLC.

[2] = target: T1, human TRPM8 receptor expressed in transfected 293H cells (Homo sapiens, UniProt Q7Z2W7); test: TRPM8 Human Transient Potential Ion Channel Cell Based Agonist Calcium Flux Assay (FLIPR)
T1 construct: expressed in transfected cells; host or cells: 293H cells
T1 sequence (Q7Z2W7 whole entry): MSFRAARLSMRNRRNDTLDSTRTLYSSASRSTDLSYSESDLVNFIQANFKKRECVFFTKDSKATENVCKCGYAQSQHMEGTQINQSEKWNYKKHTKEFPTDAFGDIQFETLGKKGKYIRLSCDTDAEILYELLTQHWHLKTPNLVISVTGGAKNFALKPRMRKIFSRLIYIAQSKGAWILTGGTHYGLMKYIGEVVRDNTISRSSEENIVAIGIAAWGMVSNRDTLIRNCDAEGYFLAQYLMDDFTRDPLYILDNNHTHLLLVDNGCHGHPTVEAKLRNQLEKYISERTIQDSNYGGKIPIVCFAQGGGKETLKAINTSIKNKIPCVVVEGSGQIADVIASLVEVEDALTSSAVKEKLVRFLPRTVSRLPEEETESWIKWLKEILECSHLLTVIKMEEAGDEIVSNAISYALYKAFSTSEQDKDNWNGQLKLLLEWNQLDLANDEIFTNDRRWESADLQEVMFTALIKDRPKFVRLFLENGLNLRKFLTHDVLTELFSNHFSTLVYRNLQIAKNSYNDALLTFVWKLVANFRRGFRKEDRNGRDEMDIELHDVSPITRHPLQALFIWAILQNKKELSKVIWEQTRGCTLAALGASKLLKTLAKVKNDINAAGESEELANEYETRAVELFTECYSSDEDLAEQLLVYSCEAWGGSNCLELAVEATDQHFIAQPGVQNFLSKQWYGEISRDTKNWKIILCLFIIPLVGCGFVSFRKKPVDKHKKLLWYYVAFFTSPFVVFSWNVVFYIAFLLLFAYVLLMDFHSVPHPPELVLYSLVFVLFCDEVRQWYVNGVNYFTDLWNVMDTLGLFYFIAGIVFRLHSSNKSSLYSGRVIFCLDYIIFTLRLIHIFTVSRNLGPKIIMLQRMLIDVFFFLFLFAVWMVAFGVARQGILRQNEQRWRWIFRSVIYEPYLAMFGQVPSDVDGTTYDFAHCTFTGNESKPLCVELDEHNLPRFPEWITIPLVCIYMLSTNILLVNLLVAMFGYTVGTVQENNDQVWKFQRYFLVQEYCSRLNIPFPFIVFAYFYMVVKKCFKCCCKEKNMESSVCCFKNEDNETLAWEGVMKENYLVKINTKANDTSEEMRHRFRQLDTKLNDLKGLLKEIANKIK
Description: This example discloses results from TRPM8 Human Transient Potential Ion Channel Cell Based Agonist Calcium Flux Assay. Evaluation of the agonist activity of compounds at the human TRPM8 receptor expressed in transfected 293H cells, determined by measuring their effect on cytosolic Ca2+ ion mobilization using a fluorometric detection method.
Protocol: The cells are suspended in DMEM buffer (Invitrogen), then distributed in microplates at a density of 3×10^4 cells/well. The fluorescent probe (Fluo4 Direct, Invitrogen) in HBSS buffer (Invitrogen) complemented with 20 mM Hepes (Invitrogen) (pH 7.4) is then added into each well and equilibrated with the cells for 60 min at 37° C. then 15 min at 22° C. Thereafter, the assay plates are positioned in a microplate reader (CellLux, PerkinElmer) which is used for the addition of the test compound, reference agonist or HBSS buffer (basal control), and the measurements of changes in fluorescence intensity which varies proportionally to the free cytosolic Ca2+ ion concentration. For stimulated control measurements, Icilin at 3 μM is added in separate assay wells. The results are expressed as a percent of the control response to 3 μM icilin. The standard reference agonist is Icilin, which is tested in each experiment at several concentrations to generate a concentration-response curve from which its EC50 value is calculated. (Behrendt, H. J., Germann, T., Gillen, C and Hatt, H. and Jostock, R. (2004), Characterization of the mouse cold-menthol receptor TRPM8 and vanilloid receptor type-1 VR1 using a fluorometric imaging plate reader (FLIPR) assay, Br. J. Pharmacol., 141: 737.)
Data analysis: EC50 values were determined as the concentration of test substance required to produce half-maximal increases in [Ca^2+]. Maximal [Ca^2+] responses were measured as peak fluorescence intensity (FI) minus basal FI, and expressed as percentages of the maximum response to icilin. Data are given as means±s.e.m., unless otherwise stated.
The EC50 values (concentration producing a half-maximal response) and IC50 values (concentration causing a half-maximal inhibition of the control agonist response) were determined by non-linear regression analysis of the concentration-response curves generated with mean replicate values using Hill equation curve fitting:
where Y=response, A=left asymptote of the curve, D=right asymptote of the curve, C=compound concentration, and C50=EC50, and nH=slope factor.

[3] = Solubility assay in DI water; assay type: physicochemical; conditions: thermodynamic from solid, HCl salts, visual, stepwise dilution from 200 mg/mL, sonication and vortex
Procedure: In order to determine the aqueous solubility of the compounds indicated, the HCl salts of the following compounds were incubated at 200 mg/mL in DI water followed by sonication for 60 seconds and then vortex stirring for 60 seconds. If insoluble material was observed, the sample was diluted to 150, 100, 50, 25, or 20 mg/mL until no insoluble material was observed. After each dilution, each sample was sonicated for 60 seconds, vortexed for 60 seconds and let equilibrate with occasional shaking for 30 minutes.

[4] = pH = ~5.0 (0.2 M aqueous sodium citrate/citric acid buffer)
[5] = pH = ~7.4 (1X Phosphate Buffered Saline)
[6] = Ca2+ mobilization, fluorometric detection, 293H cells, response relative to 3 μM icilin, read-out: TRPM8 agonist EC50

Row | Structure (SMILES) | EC50 [2, 6] [nM] | other results
1 | CC(C)[C@@H]1CC[C@@H](C)C[C@H]1OC(=O)Nc1cccc(CN)c1 [Aniline 1] | – | % degradation at 28 days [1, 4]: ~36.2%; % degradation at 28 days [1, 5]: ~41.2%
2 | CC(C)[C@@H]1CC[C@@H](C)C[C@H]1C(=O)NCc1ccc(CNC(=O)CN)cc1 [Compound 7, (1R,2S,5R)-N-(4-((2-aminoacetamido)methyl)benzyl)-2-isopropyl-5-methylcyclohexanecarboxamide hydrochloride] | 511 | –
3 | CC(C)[C@@H]1CC[C@@H](C)C[C@H]1OCC(=O)N(C)Cc1cccc(CN(C)C)c1 [Compound 1, N-(3-((dimethylamino)methyl)benzyl)-2-(((1R,2S,5R)-2-isopropyl-5-methylcyclohexyl)oxy)-N-methylacetamide hydrochloride] | 973 | –
4 | CC(C)[C@@H]1CC[C@@H](C)C[C@H]1C(=O)NCc1ccc(CCN)cc1 [Compound 12, (1R,2S,5R)-N-(4-(2-aminoethyl)benzyl)-2-isopropyl-5-methylcyclohexanecarboxamide hydrochloride] | 198 | –
5 | CC(C)[C@@H]1CC[C@@H](C)C[C@H]1C(=O)NCc1ccc2c(c1)CCNC2 [Compound 11, (1R,2S,5R)-2-isopropyl-5-methyl-N-((1,2,3,4-tetrahydroisoquinolin-6-yl)methyl)cyclohexanecarboxamide hydrochloride] | 170 | –
6 | CC(N)c1ccc(CNC(=O)[C@@H]2C[C@H](C)CC[C@H]2C(C)C)cc1 (stereo partly drawn) [Compound 13, (1R,2S,5R)-N-(4-(1-aminoethyl)benzyl)-2-isopropyl-5-methylcyclohexanecarboxamide hydrochloride] | 153 | –
7 | CC(C)[C@@H]1CC[C@@H](C)C[C@H]1OC(=O)N(C)c1cccc(CN)c1 [Aniline 2] | – | % degradation at 28 days [1, 4]: ~24.3%; % degradation at 28 days [1, 5]: ~24.4%
8 | CC(C)[C@@H]1CC[C@@H](C)C[C@H]1OCC(=O)N(C)c1cccc(CN)c1 [Aniline 3] | – | aqueous stability / hydrolysis, comparison in words [1]: more stable; % degradation at 28 days [1, 4]: ~0.4%; % degradation at 28 days [1, 5]: ~8.1%
9 | CC(C)[C@@H]1CC[C@@H](C)C[C@H]1OCC(=O)NCc1ccc(CN)cc1 [Compound 2, N-(4-(aminomethyl)benzyl)-2-(((1R,2S,5R)-2-isopropyl-5-methylcyclohexyl)oxy)acetamide hydrochloride] | 3310 | –
10 | CC(C)[C@@H]1CC[C@@H](C)C[C@H]1C(=O)N(C)c1cccc(CN)c1 [Aniline 4] | – | % degradation at 28 days [1, 4]: ~23.5%; % degradation at 28 days [1, 5]: ~31.9%
11 | CC(C)[C@@H]1CC[C@@H](C)C[C@H]1C(=O)NCc1ccccc1N1CCN(C(=O)CN)CC1 [Compound 9, (1R,2S,5R)-N-(2-(4-(2-aminoacetyl)piperazin-1-yl)benzyl)-2-isopropyl-5-methylcyclohexanecarboxamide dihydrochloride] | > 10000 | –
12 | CC(C)[C@@H]1CC[C@@H](C)C[C@H]1C(=O)NCc1ccc(CN2CCNCC2)cc1.Cl.Cl [Compound 15, (1R,2S,5R)-2-isopropyl-5-methyl-N-(4-(piperazin-1-ylmethyl)benzyl)cyclohexanecarboxamide dihydrochloride] | – | solubility at 30 min [3]: ≥ 200 mg/mL; EC50 [2]: 79 nM
13 | CC(C)[C@@H]1CC[C@@H](C)C[C@H]1C(=O)NCc1cccc(N2CCNCC2)c1 [Compound 5, (1R,2S,5R)-2-isopropyl-5-methyl-N-(3-(piperazin-1-yl)benzyl)cyclohexanecarboxamide dihydrochloride] | 220 | –
14 | CC(C)[C@@H]1CC[C@@H](C)C[C@H]1C(=O)NCc1cccc(N2CCN(C(=O)CN)CC2)c1 [Compound 6, (1R,2S,5R)-N-(3-(4-(2-aminoacetyl)piperazin-1-yl)benzyl)-2-isopropyl-5-methylcyclohexanecarboxamide dihydrochloride] | 377 | –
15 | CC(C)[C@@H]1CC[C@@H](C)C[C@H]1C(=O)N(C)Cc1cccc(CN(C)C)c1.Cl [Compound 3, (1R,2S,5R)-N-(3-((dimethylamino)methyl)benzyl)-2-isopropyl-N,5-dimethylcyclohexanecarboxamide hydrochloride] | 752 | aqueous stability / hydrolysis, comparison in words [1]: greatest aqueous stability; % degradation at 28 days [1, 4]: Noneª None^b; % degradation at 28 days [1, 5]: Noneª None^b
16 | CC(C)[C@@H]1CC[C@@H](C)C[C@H]1C(=O)NCc1ccc(N2CCNCC2)cc1.Cl.Cl [Compound 10, (1R,2S,5R)-2-isopropyl-5-methyl-N-(4-(piperazin-1-yl)benzyl)cyclohexanecarboxamide dihydrochloride] | 110 | solubility at 30 min [3]: ≥ 200 mg/mL

More lines, main results first:

Row | EC50 [2, 6] [nM] | Structure (SMILES) | other results
17 | 58 | CC(C)[C@@H]1CC[C@@H](C)C[C@H]1C(=O)NCc1cc(CN)ccn1 [Compound 17, (1R,2S,5R)-N-((4-(aminomethyl)pyridin-2-yl)methyl)-2-isopropyl-5-methylcyclohexanecarboxamide hydrochloride] | –
18 | 34800 | CC(C)[C@@H]1CC[C@@H](C)C[C@H]1C(=O)NCc1ccc(CN(C)Cc2ccccc2)cc1 [Compound 19, (1R,2S,5R)-N-(4-((benzyl(methyl)amino)methyl)benzyl)-2-isopropyl-5-methylcyclohexanecarboxamide hydrochloride] | –
19 | 421 | CC(C)[C@@H]1CC[C@@H](C)C[C@H]1C(=O)NCc1ccc(CN(C)C)cc1 [Compound 21, (1R,2S,5R)-N-(4-((dimethylamino)methyl)benzyl)-2-isopropyl-5-methylcyclohexanecarboxamide hydrochloride] | –
20 | 345 | CC(C)[C@@H]1CC[C@@H](C)C[C@H]1C(=O)NCc1ccc(C2CCNCC2)cc1.Cl [Compound 16, (1R,2S,5R)-2-isopropyl-5-methyl-N-(4-(piperidin-4-yl)benzyl)cyclohexanecarboxamide hydrochloride] | solubility at 30 min ([3]; DI water): ≥ 20 mg/mL
21 | 890 | CC(C)[C@@H]1CC[C@@H](C)C[C@H]1C(=O)NCc1ccc(CN2CCOCC2)cc1 [Compound 22, (1R,2S,5R)-2-isopropyl-5-methyl-N-(4-(morpholinomethyl)benzyl)cyclohexanecarboxamide hydrochloride] | –
22 | 96 | CC(C)[C@@H]1CC[C@@H](C)C[C@H]1C(=O)NCc1ccc(CN)cc1F [Compound 14, (1R,2S,5R)-N-(4-(aminomethyl)-2-fluorobenzyl)-2-isopropyl-5-methylcyclohexanecarboxamide hydrochloride] | –
23 | 150 | CC(C)[C@@H]1CC[C@@H](C)C[C@H]1C(=O)NCc1ccc(CN2CCCC2)cc1 [Compound 20, (1R,2S,5R)-2-isopropyl-5-methyl-N-(4-(pyrrolidin-1-ylmethyl)benzyl)cyclohexanecarboxamide hydrochloride] | –
24 | 207 | CC(C)[C@@H]1CC[C@@H](C)C[C@H]1C(=O)NCc1ccc(COC2CCNCC2)cc1 [Compound 18, (1R,2S,5R)-2-isopropyl-5-methyl-N-(4-((piperidin-4-yloxy)methyl)benzyl)cyclohexanecarboxamide hydrochloride] | –
